One compound from patent US9173878B2, “Brain function improving agent” (Tohoku University, priority 2012, dated 2015) can be followed below.

Experiment [1] deals with mouse hippocampus CA1 region. Description: Long-term potentiation of synaptic transmission (LTP), fEPSP in hippocampus slice. To be noted: 100 pM in artificial cerebrospinal fluid. Type of experiment: cell-based. Here is the method: (§1) The brain of a male mouse C57BL/6 (10-12 weeks old) was sagitally sectioned, then a coronal section brain slice (400 μm) including a hippocampus CA1 region was prepared. The hippocampus slice was recovered in an artificial cerebrospinal fluid (126 mM NaCl, 5 mM KCl, 26 mM NaHCO3, 1.3 mM MgSO4-7H2O, 1.26 mM KH2PO4, 2.4 mM CaCl2-2H2O, 10 mM glucose) saturated by a 95% O2/5% CO2 gas at 34° C. for 2 hours. The hippocampus slice was transferred to a measurement chamber, and ST101 (100 pM), SAK1 (100 pM), SAK3 (100 pM) were added to the artificial cerebrospinal fluid, and perfused. Then, the Schaffer branch to be input to the hippocampus CA1 region and the commissural fibers were stimulated by stimulus electrodes, and the postsynaptic potential (fEPSP; field excitatory postsynaptic potential) in the CA1 region induced thereby was measured. After measurement, just the hippocampus CA1 region was sliced from the slice segment, and frozen for preservation at −80° C. for measurement with immunoblotting.

The subject of experiment [2] is CaMKII. Briefly: CaMKII self-phosphorylation (activation) in hippocampus CA1 region, immunoblot. Format: cell-based, mouse. The following applies: hippocampus CA1 region 60 minutes after LTP, 100 pM. Here is the method: as §1, with “After measurement, just the hippocampus CA1 region was sliced from the slice segment, and frozen for preservation at −80° C. for measurement with immunoblotting.” left out
The above frozen mouse brain slice segment (hippocampus CA1 region) is used for homogenization on ice by adding 150 μL homogenizing buffer (50 mM Tris-HCl pH 7.5, 0.5% Triton X-100, 4 mM EGTA, 0.5 M NaCl, 10 mM EDTA, 1 mM Na3VO4, 30 mM sodium pyrophosphate, 50 mM NaF, 1 mM DTT, 100 nM calyculin A, 50 μg/mL leupeptin, 25 μg/mL pepstatin A, 50 μg/mL trypsin inhibitor) per sample. […] The protein concentration was measured by the Bradford method using a part of the supernatant. […]
(In general: In western blotting, separated proteins are transferred to a membrane and probed.)

For experiment [3], the system named is CaMKII. Description: CaMKII self-phosphorylation (activation) in cultured mouse cerebral cortex cell, immunoblot. Type of experiment: cell-based. The following applies: 100 pM, 30 minutes of incubation. Here is the method: The above frozen mouse brain slice segment (hippocampus CA1 region) is used for homogenization on ice by adding 150 μL homogenizing buffer (50 mM Tris-HCl pH 7.5, 0.5% Triton X-100, 4 mM EGTA, 0.5 M NaCl, 10 mM EDTA, 1 mM Na3VO4, 30 mM sodium pyrophosphate, 50 mM NaF, 1 mM DTT, 100 nM calyculin A, 50 μg/mL leupeptin, 25 μg/mL pepstatin A, 50 μg/mL trypsin inhibitor) per sample. Then, centrifugation was performed using a refrigerated centrifuge (14,000×g, 10 minutes, 4° C.), after which 100 μL of supernatant was collected and 20 μL of 6× Laemmli buffer was added to the supernatant to be boiled at 100° C. for 3 minutes, to form an immunoblotting sample. The protein concentration was measured by the Bradford method using a part of the supernatant. Reagants containing the same amount of protein were added to 10% SDS-polyacrylamido electrophoresis gel (SDS-PAGE gel), and SDS-PAGE was performed at 80 mA per 1 sheet of gel for 180 minutes. After separation by electrophoresis, transcription to a PVDF membrane was performed at 70 V for 120 minutes. […] After washing with a TTBS solution, ECL detection system (GE healthcare) was used to induce luminescence of HRP that labels the second antibody, and the X-ray film (Fuji Medical X-ray Film, Fuji Film) was sensitized to detect the band. An NIH image analysis software was used for a quantification analysis of the immunoreaction product.
The dispersion cultivation of a mouse cerebral cortex cell was performed by a previously reported method (Fukunaga et al., J. Biol. Chem. 267, 22527-22533, 1992). […] The frozen cerebral cortex cells were subjected to quantification analysis of the activation state (self-phosphorylation reaction) of CaMKII by the immunoblotting method after homogenization, similarly to the method in Test Example 2.

Experiment [4] has as its system olfactolectomy mouse (OBX mouse). Briefly: Novel object recognition test in olfactolectomized (OBX) mouse. The following applies: 1 mg/kg administered into the abdominal, 30 minutes before test. Format: in vivo. Here is the method: A 10 weeks old DDY male mouse (Nippon SLC, Hamamatsu, Japan) was used in the experiment. The animal was bred in an animal experiment facility in the Pharmaceutical Research Department of the Tohoku University Graduate School under a certain condition (temperature 22±2° C., 12 h: 12 h light-dark cycle) by freely providing water and a feed. Note that the handling of animals and animal experiments in the present paper was performed with an approval of Tohoku University Experimental Animal Committee and under the Tohoku University Animal Experiment Guideline.
An olfactolectomy mouse (OBX mouse) was prepared using a DDY male mouse. The olfactolectomy operation was performed under the condition of anesthesia by pentobarbital sodium (50 mg/kg i.p.; Dainippon, Osaka, Japan). The mouse was fixed to a brain brace, and the skull bone above the olfactory bulb was drilled to open a hole of 1 mm diameter. […]
Novel object recognition test: The present test uses a mouse's characteristic of preferring novel objects, and the mouse was allowed to freely explore the device in which 2 objects are placed for 10 minutes (training session). […] The numbers of contacts for the 2 objects in the training session and the trial session were measured. The percentage (%) of the number of contacts of the novel object against the number of total contacts in the trial session was calculated as the Discrimination index.

In the case of `CCOC(=O)C1=C(N2CCCCC2)C2(CC1=O)C(=O)N=C1C(C)=CC=CN12` (stereo not shown) [SAK3], the LTP potentiation effect entry in experiment [1] was “a strong potentiation effect was observed”. The “phosphorylated CaMKII / CaMKII activation” value in the experiment on CaMKII [2] was “an increase of phosphorylated CaMKII and a potentiation of CaMKII activation were confirmed”. Further, the “phosphorylated CaMKII / activation of CaMKII” value in the experiment on CaMKII [3] is recorded as “increased phosphorylated CaMKII”. For the same compound, the “improvement of cognitive dysfunction by olfactolectomy (novel object recognition test)” value in experiment [4] is recorded as “almost completely improved”.
